Legend:
Assay in all cases: Test B pre-/postemergence plant response
Type in all cases: in vivo
[1] = system: woolly cupgrass (Eriochloa villosa)
In short: (§1)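 Plants treated either at seeding (loam/sand soil) or postemergence at 2 to 18 cm height, using a surfactant-containing non-phytotoxic solvent formulation. Evaluation was visual after 13 to 15 days, 0 to 100 scale relative to controls.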

[2] = system: ragweed (common ragweed, Ambrosia elatior)
In short: as §1

[3] = system: large crabgrass (Digitaria sanguinalis)
In short: as §1

[4] = system: goosegrass (Eleusine indica)
In short: as §1

[5] = system: Surinam grass (Brachiaria decumbens)
In short: as §1

[6] = system: downy bromegrass (Bromus tectorum)
In short: as §1

[7] = system: wheat (Triticum aestivum)
In short: as §1

[8] = system: pigweed (Amaranthus retroflexus)
In short: as §1

[9] = system: Italian ryegrass (Lolium multiflorum)
In short: as §1

[10] = system: green foxtail (Setaria viridis)
In short: as §1

[11] = system: lambsquarters (Chenopodium album)
In short: as §1

[12] = system: yellow nutsedge (Cyperus esculentus)
In short: as §1

[13] = system: velvetleaf (Abutilon theophrasti)
In short: as §1

[14] = 250 g ai/ha, Preemergence, 0 to 100 scale
[15] = Postemergence, 31 g ai/ha, scale 0 to 100 (0 no effect, 100 complete control)
[16] = Postemergence, 62 g ai/ha, scale 0 (no effect) to 100 (complete control), 13 to 15 days
[17] = Postemergence, 125 g ai/ha, visual rating after 13 to 15 days, scale 0 (no effect) to 100 (complete control)
[18] = Postemergence, 250 g ai/ha, scale 0 to 100
[19] = Preemergence, 31 g ai/ha, scale 0 to 100 (0 no effect, 100 complete control)
[20] = Preemergence, 62 g ai/ha, scale 0 to 100 (0 no effect, 100 complete control)
[21] = Preemergence, 125 g ai/ha, 0 to 100 scale

With CCCCc1ncc(C(=O)C2=C(O)CCCC2=O)c(=O)n1-c1ccccc1 [Compound 42] the “Plant response rating, Cupgrass, Woolly” value [1, 14] was 5, the “Plant response rating, Cupgrass, Woolly” value [1, 15] was 15 and the “Plant response rating, Cupgrass, Woolly” value [1, 16] was 20. For the same molecule, the “Plant response rating, Cupgrass, Woolly” value [1, 17] was 25, the “Cupgrass, Woolly plant response rating” value [1, 18] was 55 and the “Plant response rating, Cupgrass, Woolly” value [1, 19] was 0. The “Plant response rating, Cupgrass, Woolly” value [1, 20] was 0, the “Cupgrass, Woolly plant response rating” value [1, 21] was 0 and the “Plant response rating, Ragweed” value [2, 14] was 80. The “Plant response rating, Ragweed” value [2, 16] was 75, the “Plant response rating, Ragweed” value [2, 17] was 85 and the “Plant response rating, Ragweed” value [2, 19] was 0. For the same molecule, the “Ragweed plant response rating” value [2, 21] was 25, the “Plant response rating, Crabgrass, Large” value [3, 14] was 100 and the “Plant response rating, Crabgrass, Large” value [3, 15] was 70. For the same molecule, the “Plant response rating, Crabgrass, Large” value [3, 16] was 75, the “Plant response rating, Crabgrass, Large” value [3, 17] was 85 and the “Crabgrass, Large plant response rating” value [3, 18] was 90. The “Plant response rating, Crabgrass, Large” value [3, 19] was 45, the “Plant response rating, Crabgrass, Large” value [3, 20] was 85 and the “Crabgrass, Large plant response rating” value [3, 21] was 95. For the same molecule, the “Plant response rating, Goosegrass” value [4, 14] was 100, the “Plant response rating, Goosegrass” value [4, 16] was 85 and the “Plant response rating, Goosegrass” value [4, 17] was 90. The “Goosegrass plant response rating” value [4, 18] was 95, the “Plant response rating, Goosegrass” value [4, 19] was 50 and the “Goosegrass plant response rating” value [4, 21] was 100. The “Plant response rating, Surinam Grass” value [5, 14] was 75, the “Plant response rating, Surinam Grass” value [5, 16] was 40 and the “Plant response rating, Surinam Grass” value [5, 17] was 45. For the same molecule, the “Plant response rating, Surinam Grass” value [5, 19] was 0, the “Surinam Grass plant response rating” value [5, 21] was 10 and the “Plant response rating, Bromegrass, Downy” value [6, 14] was 0. The “Plant response rating, Bromegrass, Downy” value [6, 15] was 0, the “Plant response rating, Bromegrass, Downy” value [6, 16] was 5 and the “Plant response rating, Bromegrass, Downy” value [6, 17] was 15. For the same molecule, the “Bromegrass, Downy plant response rating” value [6, 18] was 25, the “Plant response rating, Bromegrass, Downy” value [6, 19] was 0 and the “Plant response rating, Bromegrass, Downy” value [6, 20] was 0. For the same molecule, the “Bromegrass, Downy plant response rating” value [6, 21] was 0, the “Plant response rating, Wheat” value [7, 14] was 0 and the “Plant response rating, Wheat” value [7, 16] was 0. For the same molecule, the “Plant response rating, Wheat” value [7, 17] was 5, the “Plant response rating, Wheat” value [7, 19] was 0 and the “Wheat plant response rating” value [7, 21] was 0. The “Plant response rating, Pigweed” value [8, 14] was 100, the “Plant response rating, Pigweed” value [8, 16] was 95 and the “Plant response rating, Pigweed” value [8, 17] was 100. The “Plant response rating, Pigweed” value [8, 19] was 100, the “Pigweed plant response rating” value [8, 21] was 100 and the “Plant response rating, Ryegrass, Italian” value [9, 14] was 0. The “Plant response rating, Ryegrass, Italian” value [9, 16] was 5, the “Plant response rating, Ryegrass, Italian” value [9, 17] was 10 and the “Plant response rating, Ryegrass, Italian” value [9, 19] was 0. For the same molecule, the “Ryegrass, Italian plant response rating” value [9, 21] was 0, the “Plant response rating, Foxtail, Green” value [10, 14] was 85 and the “Plant response rating, Foxtail, Green” value [10, 15] was 50. For the same molecule, the “Plant response rating, Foxtail, Green” value [10, 16] was 55, the “Plant response rating, Foxtail, Green” value [10, 17] was 60 and the “Foxtail, Green plant response rating” value [10, 18] was 85. For the same molecule, the “Plant response rating, Foxtail, Green” value [10, 19] was 65, the “Plant response rating, Foxtail, Green” value [10, 20] was 65 and the “Foxtail, Green plant response rating” value [10, 21] was 85. The “Plant response rating, Lambsquarters” value [11, 14] was 100, the “Plant response rating, Lambsquarters” value [11, 16] was 95 and the “Plant response rating, Lambsquarters” value [11, 17] was 100. For the same molecule, the “Lambsquarters plant response rating” value [11, 18] was 100, the “Plant response rating, Lambsquarters” value [11, 19] was 100 and the “Plant response rating, Lambsquarters” value [11, 20] was 100. For the same molecule, the “Lambsquarters plant response rating” value [11, 21] was 100, the “Plant response rating, Nutsedge, Yellow” value [12, 14] was 85 and the “Plant response rating, Nutsedge, Yellow” value [12, 16] was 60. The “Plant response rating, Nutsedge, Yellow” value [12, 17] was 70, the “Plant response rating, Nutsedge, Yellow” value [12, 19] was 10 and the “Nutsedge, Yellow plant response rating” value [12, 21] was 75. The “Plant response rating, Velvetleaf” value [13, 14] was 90, the “Plant response rating, Velvetleaf” value [13, 16] was 80 and the “Plant response rating, Velvetleaf” value [13, 17] was 95. The “Plant response rating, Velvetleaf” value [13, 19] was 75 and the “Velvetleaf plant response rating” value [13, 21] was 85.

With Cc1ccc(F)cc1-n1c(-c2ccccc2)ncc(C(=O)C2=C(O)CCCC2=O)c1=O [Compound 44] the “Plant response rating, Cupgrass, Woolly” value [1, 14] was 85, the “Plant response rating, Cupgrass, Woolly” value [1, 15] was 80 and the “Plant response rating, Cupgrass, Woolly” value [1, 16] was 80. The “Plant response rating, Cupgrass, Woolly” value [1, 17] was 85, the “Cupgrass, Woolly plant response rating” value [1, 18] was 95 and the “Plant response rating, Cupgrass, Woolly” value [1, 19] was 0. For the same molecule, the “Plant response rating, Cupgrass, Woolly” value [1, 20] was 45, the “Cupgrass, Woolly plant response rating” value [1, 21] was 80 and the “Plant response rating, Ragweed” value [2, 14] was 95. The “Plant response rating, Ragweed” value [2, 16] was 95, the “Plant response rating, Ragweed” value [2, 17] was 95 and the “Plant response rating, Ragweed” value [2, 19] was 20. For the same molecule, the “Ragweed plant response rating” value [2, 21] was 95, the “Plant response rating, Crabgrass, Large” value [3, 14] was 100 and the “Plant response rating, Crabgrass, Large” value [3, 15] was 85. For the same molecule, the “Plant response rating, Crabgrass, Large” value [3, 16] was 90, the “Plant response rating, Crabgrass, Large” value [3, 17] was 95 and the “Crabgrass, Large plant response rating” value [3, 18] was 98. The “Plant response rating, Crabgrass, Large” value [3, 19] was 65, the “Plant response rating, Crabgrass, Large” value [3, 20] was 75 and the “Crabgrass, Large plant response rating” value [3, 21] was 100. The “Plant response rating, Goosegrass” value [4, 14] was 100, the “Plant response rating, Goosegrass” value [4, 16] was 90 and the “Plant response rating, Goosegrass” value [4, 17] was 90. The “Goosegrass plant response rating” value [4, 18] was 95, the “Plant response rating, Goosegrass” value [4, 19] was 90 and the “Goosegrass plant response rating” value [4, 21] was 100. For the same molecule, the “Plant response rating, Surinam Grass” value [5, 14] was 100, the “Plant response rating, Surinam Grass” value [5, 16] was 95 and the “Plant response rating, Surinam Grass” value [5, 17] was 95. The “Plant response rating, Surinam Grass” value [5, 19] was 65, the “Surinam Grass plant response rating” value [5, 21] was 90 and the “Plant response rating, Bromegrass, Downy” value [6, 14] was 5. The “Plant response rating, Bromegrass, Downy” value [6, 15] was 40, the “Plant response rating, Bromegrass, Downy” value [6, 16] was 70 and the “Plant response rating, Bromegrass, Downy” value [6, 17] was 80. The “Bromegrass, Downy plant response rating” value [6, 18] was 85, the “Plant response rating, Bromegrass, Downy” value [6, 19] was 0 and the “Plant response rating, Bromegrass, Downy” value [6, 20] was 0. The “Bromegrass, Downy plant response rating” value [6, 21] was 0, the “Plant response rating, Wheat” value [7, 14] was 0 and the “Plant response rating, Wheat” value [7, 16] was 10. For the same molecule, the “Plant response rating, Wheat” value [7, 17] was 30, the “Plant response rating, Wheat” value [7, 19] was 0 and the “Wheat plant response rating” value [7, 21] was 0. For the same molecule, the “Plant response rating, Pigweed” value [8, 14] was 100, the “Plant response rating, Pigweed” value [8, 16] was 95 and the “Plant response rating, Pigweed” value [8, 17] was 98. The “Plant response rating, Pigweed” value [8, 19] was 98, the “Pigweed plant response rating” value [8, 21] was 100 and the “Plant response rating, Ryegrass, Italian” value [9, 14] was 0. For the same molecule, the “Plant response rating, Ryegrass, Italian” value [9, 16] was 5, the “Plant response rating, Ryegrass, Italian” value [9, 17] was 10 and the “Plant response rating, Ryegrass, Italian” value [9, 19] was 0. For the same molecule, the “Ryegrass, Italian plant response rating” value [9, 21] was 0, the “Plant response rating, Foxtail, Green” value [10, 14] was 100 and the “Plant response rating, Foxtail, Green” value [10, 15] was 90. The “Plant response rating, Foxtail, Green” value [10, 16] was 90, the “Plant response rating, Foxtail, Green” value [10, 17] was 90 and the “Foxtail, Green plant response rating” value [10, 18] was 90. For the same molecule, the “Plant response rating, Foxtail, Green” value [10, 19] was 0, the “Plant response rating, Foxtail, Green” value [10, 20] was 98 and the “Foxtail, Green plant response rating” value [10, 21] was 98. For the same molecule, the “Plant response rating, Lambsquarters” value [11, 14] was 100, the “Plant response rating, Lambsquarters” value [11, 16] was 95 and the “Plant response rating, Lambsquarters” value [11, 17] was 95. For the same molecule, the “Lambsquarters plant response rating” value [11, 18] was 98, the “Plant response rating, Lambsquarters” value [11, 19] was 100 and the “Plant response rating, Lambsquarters” value [11, 20] was 100. For the same molecule, the “Lambsquarters plant response rating” value [11, 21] was 100, the “Plant response rating, Nutsedge, Yellow” value [12, 14] was 90 and the “Plant response rating, Nutsedge, Yellow” value [12, 16] was 50. For the same molecule, the “Plant response rating, Nutsedge, Yellow” value [12, 17] was 50, the “Plant response rating, Nutsedge, Yellow” value [12, 19] was 45 and the “Nutsedge, Yellow plant response rating” value [12, 21] was 75. The “Plant response rating, Velvetleaf” value [13, 14] was 100, the “Plant response rating, Velvetleaf” value [13, 16] was 98 and the “Plant response rating, Velvetleaf” value [13, 17] was 100. The “Plant response rating, Velvetleaf” value [13, 19] was 75 and the “Velvetleaf plant response rating” value [13, 21] was 100.
